Experimental data taken from the supplement of paper PMC10307832.

Tests used:
Experiment in all cases: relative viability (nuclei count vs DMSO), 5 days (fraction); higher = more cells survive
LU99A = test system: LU99A
How it was run: (§1)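 Values are medians from duplicate plates. Each reflects relative viability, defined as the nuclei count of treated wells over that of vehicle wells. Lung cancer cell lines in 1536-well plates were pin-tool dosed one day after seeding with one drug alone or with a fixed anchor-drug dose plus five library-drug doses (not always all listed) in √10 steps, then fixed, stained and imaged at 4× after 5 days.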

LXF-289 = test system: LXF-289
How it was run: as §1

NCI-H322M = test system: NCI-H322M
How it was run: as §1

PC-14 = test system: PC-14
How it was run: as §1

LCLC-103H = test system: LCLC-103H
How it was run: as §1

RERF-LC-KJ = test system: RERF-LC-KJ
How it was run: as §1

NCI-H23 = test system: NCI-H23
How it was run: as §1

EPLC-272H = test system: EPLC-272H
How it was run: as §1

LK-2 = test system: LK-2
How it was run: as §1

HCC-827 = test system: HCC-827
How it was run: as §1

EKVX = test system: EKVX
How it was run: as §1

SW 1573 = test system: SW 1573
How it was run: as §1

ChaGo-K-1 = test system: ChaGo-K-1
How it was run: as §1

HCC-78 = test system: HCC-78
How it was run: as §1

NCI-H1666 = test system: NCI-H1666
How it was run: as §1

EMC-BAC-2 = test system: EMC-BAC-2
How it was run: as §1

NCI-H2405 = test system: NCI-H2405
How it was run: as §1

NCI-H2342 = test system: NCI-H2342
How it was run: as §1

SK-LU-1 = test system: SK-LU-1
How it was run: as §1

SW 900 = test system: SW 900
How it was run: as §1

NCI-H2126 = test system: NCI-H2126
How it was run: as §1

NCI-H1975 = test system: NCI-H1975
How it was run: as §1

Compound: O=c1cc(-c2cccc3c2Sc2ccccc2S3)oc(N2CCOCC2)c1 + Cc1cc(Nc2cc(N3CCN(C)CC3)nc(Sc3ccc(NC(=O)C4CC4)cc3)n2)n[nH]1 [Tozasertib] (partner 0.1 µM)
- relative viability (LU99A; first compound 0.08 µM): 0.279
- relative viability (LU99A; first compound 0.253 µM): 0.252
- relative viability (LU99A; first compound 0.8 µM): 0.28
- relative viability (LU99A; first compound 2.53 µM): 0.285
- relative viability (LU99A; first compound 8 µM): 0.296
- relative viability (LXF-289; first compound 0.08 µM): 0.186
- relative viability (LXF-289; first compound 0.253 µM): 0.164
- relative viability (LXF-289; first compound 0.8 µM): 0.223
- relative viability (LXF-289; first compound 2.53 µM): 0.15
- relative viability (LXF-289; first compound 8 µM): 0.17
- relative viability (NCI-H322M; first compound 0.08 µM): 0.494
- relative viability (NCI-H322M; first compound 0.253 µM): 0.446
- relative viability (NCI-H322M; first compound 0.8 µM): 0.464
- relative viability (NCI-H322M; first compound 2.53 µM): 0.449
- relative viability (NCI-H322M; first compound 8 µM): 0.467
- relative viability (PC-14; first compound 0.08 µM): 0.594
- relative viability (PC-14; first compound 0.253 µM): 0.572
- relative viability (PC-14; first compound 0.8 µM): 0.548
- relative viability (PC-14; first compound 8 µM): 0.554
- relative viability (LCLC-103H; first compound 0.08 µM): 0.285
- relative viability (LCLC-103H; first compound 0.253 µM): 0.502
- relative viability (LCLC-103H; first compound 0.8 µM): 0.494
- relative viability (LCLC-103H; first compound 2.53 µM): 0.369
- relative viability (LCLC-103H; first compound 8 µM): 0.473
- relative viability (RERF-LC-KJ; first compound 0.08 µM): 0.417
- relative viability (RERF-LC-KJ; first compound 0.253 µM): 0.478
- relative viability (RERF-LC-KJ; first compound 0.8 µM): 0.539
- relative viability (RERF-LC-KJ; first compound 2.53 µM): 0.411
- relative viability (RERF-LC-KJ; first compound 8 µM): 0.389
- relative viability (NCI-H23; first compound 0.08 µM): 0.629
- relative viability (NCI-H23; first compound 0.253 µM): 0.341
- relative viability (NCI-H23; first compound 0.8 µM): 0.357
- relative viability (NCI-H23; first compound 2.53 µM): 0.296
- relative viability (NCI-H23; first compound 8 µM): 0.283
- relative viability (EPLC-272H; first compound 0.08 µM): 0.238
- relative viability (EPLC-272H; first compound 0.253 µM): 0.193
- relative viability (EPLC-272H; first compound 0.8 µM): 0.299
- relative viability (EPLC-272H; first compound 2.53 µM): 0.237
- relative viability (EPLC-272H; first compound 8 µM): 0.236
- relative viability (LK-2; first compound 0.08 µM): 0.184
- relative viability (LK-2; first compound 0.253 µM): 0.165
- relative viability (LK-2; first compound 0.8 µM): 0.176
- relative viability (LK-2; first compound 2.53 µM): 0.162
- relative viability (LK-2; first compound 8 µM): 0.16
- relative viability (HCC-827; first compound 0.08 µM): 0.462
- relative viability (HCC-827; first compound 0.253 µM): 0.409
- relative viability (HCC-827; first compound 0.8 µM): 0.46
- relative viability (HCC-827; first compound 2.53 µM): 0.415
- relative viability (HCC-827; first compound 8 µM): 0.437
- relative viability (EKVX; first compound 0.08 µM): 0.517
- relative viability (EKVX; first compound 0.253 µM): 0.376
- relative viability (EKVX; first compound 0.8 µM): 0.451
- relative viability (EKVX; first compound 2.53 µM): 0.377
- relative viability (EKVX; first compound 8 µM): 0.412
- relative viability (SW 1573; first compound 0.08 µM): 0.175
- relative viability (SW 1573; first compound 0.253 µM): 0.186
- relative viability (SW 1573; first compound 0.8 µM): 0.197
- relative viability (SW 1573; first compound 2.53 µM): 0.175
- relative viability (SW 1573; first compound 8 µM): 0.125
- relative viability (ChaGo-K-1; first compound 0.08 µM): 0.213
- relative viability (ChaGo-K-1; first compound 0.253 µM): 0.215
- relative viability (ChaGo-K-1; first compound 0.8 µM): 0.218
- relative viability (ChaGo-K-1; first compound 2.53 µM): 0.21
- relative viability (ChaGo-K-1; first compound 8 µM): 0.209
- relative viability (HCC-78; first compound 0.08 µM): 0.295
- relative viability (HCC-78; first compound 0.253 µM): 0.457
- relative viability (HCC-78; first compound 0.8 µM): 0.511
- relative viability (HCC-78; first compound 2.53 µM): 0.384
- relative viability (HCC-78; first compound 8 µM): 0.334
- relative viability (NCI-H1666; first compound 0.08 µM): 0.612
- relative viability (NCI-H1666; first compound 0.253 µM): 0.603
- relative viability (NCI-H1666; first compound 0.8 µM): 0.625
- relative viability (NCI-H1666; first compound 2.53 µM): 0.539
- relative viability (NCI-H1666; first compound 8 µM): 0.615
- relative viability (EMC-BAC-2; first compound 0.08 µM): 0.242
- relative viability (EMC-BAC-2; first compound 0.253 µM): 0.299
- relative viability (EMC-BAC-2; first compound 0.8 µM): 0.295
- relative viability (EMC-BAC-2; first compound 2.53 µM): 0.257
- relative viability (EMC-BAC-2; first compound 8 µM): 0.293
- relative viability (NCI-H2405; first compound 0.08 µM): 0.667
- relative viability (NCI-H2405; first compound 0.253 µM): 0.752
- relative viability (NCI-H2405; first compound 0.8 µM): 0.72
- relative viability (NCI-H2405; first compound 2.53 µM): 0.638
- relative viability (NCI-H2405; first compound 8 µM): 0.681
- relative viability (NCI-H2342; first compound 0.08 µM): 0.505
- relative viability (NCI-H2342; first compound 0.253 µM): 0.495
- relative viability (NCI-H2342; first compound 0.8 µM): 0.472
- relative viability (NCI-H2342; first compound 2.53 µM): 0.532
- relative viability (NCI-H2342; first compound 8 µM): 0.466
- relative viability (SK-LU-1; first compound 0.08 µM): 0.309
- relative viability (SK-LU-1; first compound 0.253 µM): 0.312
- relative viability (SK-LU-1; first compound 0.8 µM): 0.313
- relative viability (SK-LU-1; first compound 2.53 µM): 0.269
- relative viability (SK-LU-1; first compound 8 µM): 0.322
- relative viability (SW 900; first compound 0.08 µM): 0.754
- relative viability (SW 900; first compound 0.253 µM): 0.543
- relative viability (SW 900; first compound 0.8 µM): 0.433
- relative viability (SW 900; first compound 2.53 µM): 0.486
- relative viability (SW 900; first compound 8 µM): 0.5
- relative viability (NCI-H2126; first compound 0.08 µM): 0.825
- relative viability (NCI-H2126; first compound 0.253 µM): 0.875
- relative viability (NCI-H2126; first compound 0.8 µM): 0.824
- relative viability (NCI-H2126; first compound 2.53 µM): 0.781
- relative viability (NCI-H2126; first compound 8 µM): 0.788
- relative viability (NCI-H1975; first compound 0.08 µM): 0.867
- relative viability (NCI-H1975; first compound 0.253 µM): 0.803
- relative viability (NCI-H1975; first compound 0.8 µM): 0.653
- relative viability (NCI-H1975; first compound 2.53 µM): 0.341
- relative viability (NCI-H1975; first compound 8 µM): 0.299
